# Data: EP3807270B1, “NOVEL HETEROARYL HETEROCYCLYL COMPOUNDS FOR THE TREATMENT OF AUTOIMMUNE DISEASE” (F. Hoffmann-La Roche AG, priority 2018, dated 2019)
# Biological target: T1, hTLR7 (Homo sapiens, UniProt Q9NYK1)
# T1 sequence (Q9NYK1 27-1049): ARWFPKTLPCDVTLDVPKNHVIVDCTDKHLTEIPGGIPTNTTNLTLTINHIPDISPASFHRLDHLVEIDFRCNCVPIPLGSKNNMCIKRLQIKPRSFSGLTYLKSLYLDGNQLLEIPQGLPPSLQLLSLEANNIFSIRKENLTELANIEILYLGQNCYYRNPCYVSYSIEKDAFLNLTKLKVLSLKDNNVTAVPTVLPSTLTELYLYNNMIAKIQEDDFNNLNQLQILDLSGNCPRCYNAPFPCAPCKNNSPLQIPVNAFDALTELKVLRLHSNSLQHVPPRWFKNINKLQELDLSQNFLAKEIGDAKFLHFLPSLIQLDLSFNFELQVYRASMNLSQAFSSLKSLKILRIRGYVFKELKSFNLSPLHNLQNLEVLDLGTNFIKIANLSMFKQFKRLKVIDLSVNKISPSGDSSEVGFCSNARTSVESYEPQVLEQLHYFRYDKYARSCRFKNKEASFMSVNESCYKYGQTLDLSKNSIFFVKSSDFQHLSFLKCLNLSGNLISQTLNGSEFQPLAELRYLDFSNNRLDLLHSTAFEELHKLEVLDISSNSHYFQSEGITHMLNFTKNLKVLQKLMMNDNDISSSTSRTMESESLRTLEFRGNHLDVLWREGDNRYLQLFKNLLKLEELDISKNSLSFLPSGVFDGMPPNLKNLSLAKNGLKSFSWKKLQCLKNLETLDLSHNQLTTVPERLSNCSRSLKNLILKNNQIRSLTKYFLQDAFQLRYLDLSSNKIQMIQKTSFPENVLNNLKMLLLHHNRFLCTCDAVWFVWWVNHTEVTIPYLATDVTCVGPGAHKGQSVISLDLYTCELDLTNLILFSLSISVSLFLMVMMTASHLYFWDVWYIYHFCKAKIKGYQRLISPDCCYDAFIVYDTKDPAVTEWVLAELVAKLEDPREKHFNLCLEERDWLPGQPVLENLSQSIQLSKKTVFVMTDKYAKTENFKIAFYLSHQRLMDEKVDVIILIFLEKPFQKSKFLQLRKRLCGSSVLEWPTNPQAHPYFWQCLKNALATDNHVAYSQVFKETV
# Experiment: HEK293-Blue-hTLR-7 cells assay (SEAP reporter, R848 stimulation)
# Assay type: cell-based
# Design: host or cells: HEK293 (HEK-Blue)
# Conditions: HEK293-Blue-hTLR7 cells, R848, 20 hrs; read-out: HEK/hTLR7 IC50
# Source text: A stable HEK293-Blue-hTLR-7 cell line was purchased from InvivoGen (Cat.#: hkb-htlr7, San Diego, California, USA). These cells were originally designed for studying the stimulation of human TLR7 by monitoring the activation of NF-κB. A SEAP (secreted embryonic alkaline phosphatase) reporter gene was placed under the control of the IFN-β minimal promoter fused to five NF-κB and AP-1-binding sites. The SEAP was induced by activating NF-xB and AP-1 via stimulating HEK-Blue hTT,R7 cells with TLR7 ligands. Therefore, the reporter expression was declined by TLR7 antagonist under the stimulation of a ligand, such as R848 (Resiquimod), for incubation of 20 hrs. The cell culture supernatant SEAP reporter activity was determined using QUANTI-Blue™ kit (Cat.#: rep-qb1, Invivogen, San Diego, Ca, USA) at a wavelength of 640 nm, a detection medium that turns purple or blue in the presence of alkaline phosphatase.
# HEK293-Blue-hTLR7 cells were incubated at a density of 250,000-450,000 cells/mL in a volume of 170 µL in a 96-well plate in Dulbecco's Modified Eagle's medium (DMEM) containing 4.5 g/L glucose, 50 U/mL penicillin, […], […], 2 mM L-glutamine, 10% (v/v) heat-inactivated fetal bovine serum with addition of 20 µL test compound in a serial dilution in the presence of final DMSO at 1% and 10 µL of 20uM R848 in above DMEM, perform incubation under 37 °C in a CO2 incubator for 20 hrs. Then 20 µL of the supernatant from each well was incubated with 180 µL Quanti-blue substrate solution at 37 °C for 2 hrs and the absorbance was read at 620-655 nm using a spectrophotometer. The signaling pathway that TLR7 activation leads to downstream NF-xB activation has been widely accepted, and therefore similar reporter assay was modified for evaluating TLR7 antagonist.
row,IC50,SMILES
1,17 nM,"C[C@@H]1CN(c2ccc(C#N)c3ncccc23)C[C@H](CN2CCCN(c3nc4c(s3)CNCC4)CC2)O1 [Example 33, 5-[(2R,6S)-2-methyl-6-[[4-(4,5,6,7-tetrahydrothiazolo[5,4-c]pyridin-2-yl)-1,4-diazepan-1-yl]methyl]morpholin-4-yl]quinoline-8-carbonitrile]"
2,< 3 nM,"C[C@@H]1CN(c2ccc(C#N)c3ncccc23)C[C@H](CN2CCN(c3nccc4c3CCNC4)CC2)O1 [Example 62, 5-[(2R,6S)-2-methyl-6-[[4-(5,6,7,8-tetrahydro-2,6-naphthyridin-1-yl)piperazin-1-yl]methyl]morpholin-4-yl]quinoline-8-carbonitrile]"
3,57 nM,"C[C@@H]1CN(c2ccc(C#N)c3ncccc23)C[C@H](CN2CCN(c3ccc4c(c3)CNC4)C(CO)C2)O1 (stereo partly drawn) [Example 13, 5-[(2S,6R)-2-[[3-(hydroxymethyl)-4-isoindolin-5-yl-piperazin-1-yl]methyl]-6-methyl-morpholin-4-yl]quinoline-8-carbonitrile]"
4,5 nM,"C[C@@H]1CN(c2ccc(C#N)c3nccnc23)C[C@H](CN2CCN(c3ccc4c(n3)CN[C@H]4C)CC2)O1 (single isomer, unassigned) [Example 78]"
5,9 nM,"C[C@@H]1CN(c2ccc(C#N)c3ncccc23)C[C@H](CN2CCN(c3cc4c(cn3)CNC4)CC2)O1 [Example 18, 5-[(2S,6R)-2-[[4-(2,3-dihydro-1H-pyrrolo[3,4-c]pyridin-6-yl)piperazin-1-yl]methyl]-6-methyl-morpholin-4-yl] quinoline-8-carbonitrile]"
6,13 nM,"C[C@@H]1CN(c2ccc(C#N)c3ncccc23)C[C@H](CN2CCN(c3cnc4c(c3)CN[C@@H]4C)CC2)O1 (single isomer, unassigned) [Example 68]"
7,11 nM,"C[C@@H]1CN(c2ccc(C#N)c3ncccc23)C[C@H](CN2CCN(c3cnc4c(c3)CNCC4)CC2)O1 [Example 21, 5-[(2R,6S)-2-methyl-6-[[4-(5,6,7,8-tetrahydro-1,6-naphthyridin-3-yl)piperazin-1-yl]methyl]morpholin-4-yl]quinoline-8-carbonitrile]"
8,9 nM,"C[C@@H]1CN(c2ccc(C#N)c3ncccc23)C[C@H](CN2CCN(c3cc4c(cn3)CNCC4)CC2)O1 [Example 19, 5-[(2R,6S)-2-methyl-6-[[4-(5,6,7,8-tetrahydro-2,7-naphthyridin-3-yl)piperazin-1-yl]methyl]morpholin-4-yl]quinoline-8-carbonitrile]"
9,8 nM,"C[C@@H]1CN(c2ccc(C#N)c3nccnc23)C[C@H](CN2CCN(c3cc4c(cn3)CCNC4)CC2)O1 [Example 80, 8-[(2R,6S)-2-methyl-6-[[4-(5,6,7,8-tetrahydro-2,6-naphthyridin-3-yl)piperazin-1-yl]methyl]morpholin-4-yl]quinoxaline-5-carbonitrile]"
10,3 nM,"C[C@@H]1CN(c2ccc(C#N)c3ncccc23)C[C@H](CN2CC3[C@H](C2)OCCN3c2ccc3c(n2)CCNC3)O1 (stereo in doubt) [Example 53, cis-5-[(2R,6S)-2-methyl-6-[[4-(5,6,7,8-tetrahydro-1,6-naphthyridin-2-yl)-2,3,4a,5,7,7a-hexahydropyrrolo[3,4-b][1,4]oxazin-6-yl]methyl]morpholin-4-yl]quinoline-8-carbonitrile]"
11,69 nM,"C[C@@H]1CN(c2ccc(C#N)c3ncccc23)C[C@H](CN2CCC(Nc3ncc4c(n3)CNC4)C2)O1 (stereo partly drawn) [Example 32, 5-[(2S,6R)-2-[[3-(6,7-dihydro-5H-pyrrolo[3,4-d]pyrimidin-2-ylamino)pyrrolidin-1-yl]methyl]-6-methyl-morpholin-4-yl]quinoline-8-carbonitrile]"
12,11 nM,"C[C@@H]1CN(c2ccc(C#N)c3ncccc23)C[C@H](CN2CCN(c3cnc4c(n3)CCNC4)CC2)O1 [Example 17, 5-[(2R,6S)-2-methyl-6-[[4-(5,6,7,8-tetrahydropyrido[3,4-b]pyrazin-2-yl)piperazin-1-yl]methyl]morpholin-4-yl]quinoline-8-carbonitrile]"
13,4 nM,"C[C@@H]1CN(c2ccc(C#N)c3ncccc23)C[C@H](CN2CC3(C2)CN(c2cnc4c(n2)CCNC4)CCO3)O1 [Example 50, 5-[(2R,6S)-2-methyl-6-[[8-(5,6,7,8-tetrahydropyrido[3,4-b]pyrazin-2-yl)-5-oxa-2,8-diazaspiro [3.5]nonan-2-yl]methyl]morpholin-4-yl] quinoline-8-carbonitrile]"
14,12 nM,"C[C@@H]1CN(c2ccc(C#N)c3ncccc23)C[C@H](CN2CCN(c3ccc4c(n3)CN[C@@H]4C)CC2)O1 (single isomer, unassigned) [Example 64]"
15,11 nM,"C[C@@H]1CN(c2ccc(C#N)c3ncccc23)C[C@H](CN2CCN(c3ccc4c(n3)CN[C@H]4C)CC2)O1 (single isomer, unassigned) [Example 63]"
16,5 nM,"C[C@@H]1CN(c2ccc(C#N)c3ncccc23)C[C@H](CN2CC3(C2)CN(c2cc4c(cn2)CCNC4)CCO3)O1 [Example 48, 5-[(2R,6S)-2-methyl-6-[[8-(5,6,7,8-tetrahydro-2,6-naphthyridin-3-yl)-5-oxa-2,8-diazaspiro[3.5]nonan-2-yl]methyl]morpholin-4-yl]quinoline-8-carbonitrile]"
17,11 nM,"CC1NCc2cc(N3CCN(C[C@H]4CN(c5ccc(C#N)c6ncccc56)C[C@@H](C)O4)CC3)ccc21 (stereo partly drawn) [Example 28, 5-[(2R,6S)-2-methyl-6-[[4-(1-methylisoindolin-5-yl)piperazin-1-yl]methyl]morpholin-4-yl]quinoline-8-carbonitrile]"
18,11 nM,"C[C@@H]1CN(c2ccc(C#N)c3ncccc23)C[C@H](CN2CCN(c3ccc4c(n3)CCNC4)CC2)O1 [Example 14, 5-[(2R,6S)-2-methyl-6-[[4-(5,6,7,8-tetrahydro-1,6-naphthyridin-2-yl)piperazin-1-yl]methyl]morpholin-4-yl]quinoline-8-carbonitrile]"
19,19 nM,"C[C@@H]1CN(c2ccc(C#N)c3nccnc23)C[C@H](CN2CCN(c3cnc4c(c3)CNC4)CC2)O1 [Example 25, 8-[(2S,6R)-2-[[4-(6,7-dihydro-5H-pyrrolo[3,4-b]pyridin-3-yl)piperazin-1-yl]methyl]-6-methyl-morpholin-4-yl] quinoxaline-5-carbonitrile]"
20,39 nM,"C[C@@H]1CN(c2ccc(C#N)c3ncccc23)C[C@H](CN2CCN(c3ccc4c(c3)CNC4)CC2)O1 [Example 7, 5-[(2S,6R)-2-[(4-isoindolin-5-ylpiperazin-1-yl)methyl]-6-methyl-morpholin-4-yl] quinoline-8-carbonitrile]"
21,130 nM,"C[C@@H]1CN(c2ccc(C#N)c3ncccc23)C[C@H](CNC2CN(c3cnc4c(c3)CNC4)C2)O1 [Example 43, 5-[(2S,6R)-2-[[[1-(6,7-dihydro-5H-pyrrolo[3,4-b]pyridin-3-yl)azetidin-3-yl]amino]methyl]-6-methyl-morpholin-4-yl]quinoline-8-carbonitrile]"
22,59 nM,"C[C@@H]1CN(c2ccc(C#N)c3ncccc23)C[C@H](CN2CCN(c3cnc4c(c3)CCNC4)CC2)O1 [Example 23, 5-[(2R,6S)-2-methyl-6-[[4-(5,6,7,8-tetrahydro-1,7-naphthyridin-3-yl)piperazin-1-yl]methyl]morpholin-4-yl]quinoline-8-carbonitrile]"
